From ChEMBL document CHEMBL5120839, “Design, synthesis and antibacterial activity of novel pleuromutilin derivatives with thieno[2,3-d]pyrimidine substitution” (Eur J Med Chem, 2022) come the findings set out here.

Each structure is given as a SMILES string. Converted amounts (≈) assume the structure as drawn.

One test concerns Escherichia coli. As to the kind of experiment: Antibacterial activity against Escherichia coli assessed as bacterial growth by measuring optical density at 1 to 2 times MIC incubated for 12 hrs by real time growth curve analysis. It is filed as functional.
`C=C[C@]1(C)C[C@@H](OC(=O)CSc2nc(N(C)CCN(C)C)c3ccsc3n2)[C@]2(C)[C@H](C)CC[C@]3(CCC(=O)[C@H]32)[C@@H](C)[C@@H]1O`: the OD stood at 0.1.
The same measure, in the same setting: next, `C=C[C@]1(C)C[C@@H](OC(=O)CSc2nc(NCCO)c3ccccc3n2)[C@]2(C)[C@H](C)CC[C@]3(CCC(=O)[C@H]32)[C@@H](C)[C@@H]1O`: 0.1.

For a further test, the system named is Streptococcus agalactiae. In words: Antibacterial activity against Streptococcus agalactiae assessed as inhibition of bacterial growth incubated for 24 hrs by microbroth two-fold dilution method. It is filed as functional. Background: Broth dilution looks for growth in wells or tubes with falling amounts of substance.
As for `C=C[C@]1(C)C[C@@H](OC(=O)CS[C@@H]2C[C@H]3CC[C@@H](C2)N3C)[C@]2(C)[C@H](C)CC[C@]3(CCC(=O)[C@H]32)[C@@H](C)[C@@H]1O` [RETAPAMULIN], the minimal inhibitory concentration (MIC) came out at 0.0305 µg/mL (≈ 0.0589 µM).
Still for that read-out and setting: next, `C=C[C@]1(C)C[C@@H](OC(=O)CSc2nc(N(C)CCN(C)C)c3ccsc3n2)[C@]2(C)[C@H](C)CC[C@]3(CCC(=O)[C@H]32)[C@@H](C)[C@@H]1O`: 0.244 µg/mL (≈ 0.388 µM); `C=C[C@]1(C)C[C@@H](OC(=O)CSc2nc(NCCO)c3ccccc3n2)[C@]2(C)[C@H](C)CC[C@]3(CCC(=O)[C@H]32)[C@@H](C)[C@@H]1O`: 0.0153 µg/mL (≈ 0.0263 µM).

In a further test the test system is Streptococcus agalactiae. In words: Antibacterial activity against Streptococcus agalactiae assessed as bacterial growth by measuring optical density at 1 to 2 times MIC incubated for 12 hrs by real time growth curve analysis. It is filed as functional.
With `C=C[C@]1(C)C[C@@H](OC(=O)CSc2nc(N(C)CCN(C)C)c3ccsc3n2)[C@]2(C)[C@H](C)CC[C@]3(CCC(=O)[C@H]32)[C@@H](C)[C@@H]1O`, the OD turned out to be 0.1.
Still for that read-out and setting: next, `C=C[C@]1(C)C[C@@H](OC(=O)CSc2nc(NCCO)c3ccccc3n2)[C@]2(C)[C@H](C)CC[C@]3(CCC(=O)[C@H]32)[C@@H](C)[C@@H]1O`: 0.1.

The subject of a further test is Staphylococcus aureus. In words: Antibacterial activity against Staphylococcus aureus assessed as diameter of the inhibition circle at 1 mg/ml incubated for 48 hrs. It is filed as functional.
With `C=C[C@]1(C)C[C@@H](OC(=O)CS[C@@H]2C[C@H]3CC[C@@H](C2)N3C)[C@]2(C)[C@H](C)CC[C@]3(CCC(=O)[C@H]32)[C@@H](C)[C@@H]1O` [RETAPAMULIN], the inhibition zone diameter worked out at 30.4 mm.
Still for that read-out and setting: next, `C=C[C@]1(C)C[C@@H](OC(=O)CSc2nc(N(C)CCN(C)C)c3ccsc3n2)[C@]2(C)[C@H](C)CC[C@]3(CCC(=O)[C@H]32)[C@@H](C)[C@@H]1O`: 29.4 mm.
`C=C[C@]1(C)C[C@@H](OC(=O)CSc2nc(NCCO)c3ccccc3n2)[C@]2(C)[C@H](C)CC[C@]3(CCC(=O)[C@H]32)[C@@H](C)[C@@H]1O`: the inhibition zone diameter is 30.5 mm.

The next test concerns Staphylococcus aureus. In words: Antibacterial activity against Staphylococcus aureus assessed as inhibition of bacterial growth incubated for 24 hrs by microbroth two-fold dilution method. It is filed as functional.
`C=C[C@]1(C)C[C@@H](OC(=O)CS[C@@H]2C[C@H]3CC[C@@H](C2)N3C)[C@]2(C)[C@H](C)CC[C@]3(CCC(=O)[C@H]32)[C@@H](C)[C@@H]1O` [RETAPAMULIN]: the MIC was 0.122 µg/mL (≈ 0.236 µM).
Regarding `C=C[C@]1(C)C[C@@H](OC(=O)CSc2nc(N(C)CCN(C)C)c3ccsc3n2)[C@]2(C)[C@H](C)CC[C@]3(CCC(=O)[C@H]32)[C@@H](C)[C@@H]1O`, the MIC worked out at 0.0019 µg/mL (≈ 0.00302 µM).
As to `C=C[C@]1(C)C[C@@H](OC(=O)CSc2nc(NCCO)c3ccccc3n2)[C@]2(C)[C@H](C)CC[C@]3(CCC(=O)[C@H]32)[C@@H](C)[C@@H]1O`, the MIC was 0.0153 µg/mL (≈ 0.0263 µM).

A further test deals with Staphylococcus aureus. As to the kind of experiment: Antibacterial activity against Staphylococcus aureus assessed as bacterial growth by measuring optical density incubated for 12 hrs by real time growth curve analysis. It is filed as functional.
As for `C=C[C@]1(C)C[C@@H](OC(=O)CSc2nc(NCCO)c3ccccc3n2)[C@]2(C)[C@H](C)CC[C@]3(CCC(=O)[C@H]32)[C@@H](C)[C@@H]1O`, the OD is listed as <0.3.

The test system of a further test is Streptococcus agalactiae. As to the kind of experiment: Antibacterial activity against Streptococcus agalactiae assessed as bacterial growth by measuring optical density at 0.5 times MIC incubated for 12 hrs by real time growth curve analysis. It is filed as functional.
On to `C=C[C@]1(C)C[C@@H](OC(=O)CSc2nc(N(C)CCN(C)C)c3ccsc3n2)[C@]2(C)[C@H](C)CC[C@]3(CCC(=O)[C@H]32)[C@@H](C)[C@@H]1O`, for which the OD was <0.3.
For the compound `C=C[C@]1(C)C[C@@H](OC(=O)CSc2nc(NCCO)c3ccccc3n2)[C@]2(C)[C@H](C)CC[C@]3(CCC(=O)[C@H]32)[C@@H](C)[C@@H]1O`, the OD is reported as <0.3.

Another test concerns Escherichia coli. As to the kind of experiment: Antibacterial activity against Escherichia coli assessed as bacterial growth by measuring optical density at 0.5 times MIC incubated for 12 hrs by real time growth curve analysis. It is filed as functional.
In the case of `C=C[C@]1(C)C[C@@H](OC(=O)CSc2nc(N(C)CCN(C)C)c3ccsc3n2)[C@]2(C)[C@H](C)CC[C@]3(CCC(=O)[C@H]32)[C@@H](C)[C@@H]1O`, the OD is <0.3.
As for `C=C[C@]1(C)C[C@@H](OC(=O)CSc2nc(NCCO)c3ccccc3n2)[C@]2(C)[C@H](C)CC[C@]3(CCC(=O)[C@H]32)[C@@H](C)[C@@H]1O`, the OD is <0.3.

The test system of another test is Staphylococcus aureus. As to the kind of experiment: Antibacterial activity against Methicillin-resistant Staphylococcus aureus BNCC 337371 assessed as inhibition of bacterial growth incubated for 24 hrs by microbroth two-fold dilution method. It is filed as functional.
Take `C=C[C@]1(C)C[C@@H](OC(=O)CS[C@@H]2C[C@H]3CC[C@@H](C2)N3C)[C@]2(C)[C@H](C)CC[C@]3(CCC(=O)[C@H]32)[C@@H](C)[C@@H]1O` [RETAPAMULIN]: the MIC was 0.0621 µg/mL (≈ 0.12 µM).
Regarding `C=C[C@]1(C)C[C@@H](OC(=O)CSc2nc(N(C)CCN(C)C)c3ccsc3n2)[C@]2(C)[C@H](C)CC[C@]3(CCC(=O)[C@H]32)[C@@H](C)[C@@H]1O`, the MIC is 0.244 µg/mL (≈ 0.388 µM).
On the same count and under the same terms, next, `C=C[C@]1(C)C[C@@H](OC(=O)CSc2nc(NCCO)c3ccccc3n2)[C@]2(C)[C@H](C)CC[C@]3(CCC(=O)[C@H]32)[C@@H](C)[C@@H]1O`: 0.0305 µg/mL (≈ 0.0524 µM).

For another test, the system named is Escherichia coli. In words: Antibacterial activity against Escherichia coli assessed as inhibition of bacterial growth incubated for 24 hrs by microbroth two-fold dilution method. The class given is functional.
As for `C=C[C@]1(C)C[C@@H](OC(=O)CS[C@@H]2C[C@H]3CC[C@@H](C2)N3C)[C@]2(C)[C@H](C)CC[C@]3(CCC(=O)[C@H]32)[C@@H](C)[C@@H]1O` [RETAPAMULIN], the MIC was determined as 1.95 µg/mL (≈ 3.77 µM).
Same read-out and setting: next, `C=C[C@]1(C)C[C@@H](OC(=O)CSc2nc(N(C)CCN(C)C)c3ccsc3n2)[C@]2(C)[C@H](C)CC[C@]3(CCC(=O)[C@H]32)[C@@H](C)[C@@H]1O`: 0.244 µg/mL (≈ 0.388 µM); `C=C[C@]1(C)C[C@@H](OC(=O)CSc2nc(NCCO)c3ccccc3n2)[C@]2(C)[C@H](C)CC[C@]3(CCC(=O)[C@H]32)[C@@H](C)[C@@H]1O`: 0.03 µg/mL (≈ 0.0516 µM).

By MIC is commonly meant the least concentration at which growth counts as inhibited.
